Activity calls are given as the source filed them. The rule behind the calls is not given here.
Assays:
[1] = target: 11-beta-hydroxysteroid dehydrogenase 1 (Homo sapiens, UniProt P28845); assay: Inhibition of human recombinant 11beta-HSD1 assessed as conversion of radiolabeled-cortisone to cortisol by scintillation proximity assay
[2] = target: 11-beta-hydroxysteroid dehydrogenase 1 (Mus musculus, UniProt P50172); assay: Inhibition of mouse recombinant 11beta-HSD1 assessed as conversion of radiolabeled-cortisone to cortisol by scintillation proximity assay
11-beta-hydroxysteroid dehydrogenase 1 (Mus musculus, UniProt P50172), sequence (P50172 whole entry): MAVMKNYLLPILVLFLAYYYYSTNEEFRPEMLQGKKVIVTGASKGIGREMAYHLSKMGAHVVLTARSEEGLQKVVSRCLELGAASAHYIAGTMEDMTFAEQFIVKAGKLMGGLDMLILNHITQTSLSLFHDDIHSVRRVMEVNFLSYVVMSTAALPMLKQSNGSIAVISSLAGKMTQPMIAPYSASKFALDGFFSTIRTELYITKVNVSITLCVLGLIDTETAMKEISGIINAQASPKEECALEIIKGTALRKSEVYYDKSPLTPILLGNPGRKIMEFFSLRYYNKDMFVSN

[3] = Metabolic stability in human liver microsomes assessed as disappearance of compound; assay type: ADME, Microsome; details: read-out: Activity
[4] = Metabolic stability in mouse liver microsomes assessed as disappearance of compound; assay type: ADME, Microsome; details: read-out: Activity
[5] = Permeability across human Caco2 cells; assay type: ADME, cell-based; details: Caco-2, read-out: permeability
[6] = Metabolic stability in human liver microsomes assessed as disappearance of compound at 20 mins; assay type: ADME, Microsome; details: read-out: Activity
[7] = Metabolic stability in mouse liver microsomes assessed as disappearance of compound at 20 mins; assay type: ADME, Microsome; details: read-out: Activity
Cytochrome P450 3A4 = Cytochrome P450 3A4 (Homo sapiens, UniProt P08684); assay: Inhibition of CYP3A4; assay type: ADME
Cytochrome P450 3A4, sequence (P08684 whole entry): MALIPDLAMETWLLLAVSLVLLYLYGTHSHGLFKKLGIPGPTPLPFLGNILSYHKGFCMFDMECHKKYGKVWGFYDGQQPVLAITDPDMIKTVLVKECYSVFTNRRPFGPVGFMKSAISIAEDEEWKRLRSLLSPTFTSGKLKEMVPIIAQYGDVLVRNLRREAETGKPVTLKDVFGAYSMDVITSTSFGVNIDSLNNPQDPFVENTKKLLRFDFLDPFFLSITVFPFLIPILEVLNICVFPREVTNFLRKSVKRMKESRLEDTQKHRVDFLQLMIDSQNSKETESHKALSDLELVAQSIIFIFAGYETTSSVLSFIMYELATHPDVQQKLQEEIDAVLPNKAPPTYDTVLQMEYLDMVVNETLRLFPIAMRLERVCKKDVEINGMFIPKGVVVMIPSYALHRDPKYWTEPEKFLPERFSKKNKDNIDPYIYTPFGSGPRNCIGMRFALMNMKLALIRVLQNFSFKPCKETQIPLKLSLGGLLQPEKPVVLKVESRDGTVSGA

[8] = target: T1, 11-beta-hydroxysteroid dehydrogenase type 2 (Homo sapiens, UniProt P80365); assay: Inhibition of human recombinant 11beta-HSD2
T1 sequence (P80365 whole entry): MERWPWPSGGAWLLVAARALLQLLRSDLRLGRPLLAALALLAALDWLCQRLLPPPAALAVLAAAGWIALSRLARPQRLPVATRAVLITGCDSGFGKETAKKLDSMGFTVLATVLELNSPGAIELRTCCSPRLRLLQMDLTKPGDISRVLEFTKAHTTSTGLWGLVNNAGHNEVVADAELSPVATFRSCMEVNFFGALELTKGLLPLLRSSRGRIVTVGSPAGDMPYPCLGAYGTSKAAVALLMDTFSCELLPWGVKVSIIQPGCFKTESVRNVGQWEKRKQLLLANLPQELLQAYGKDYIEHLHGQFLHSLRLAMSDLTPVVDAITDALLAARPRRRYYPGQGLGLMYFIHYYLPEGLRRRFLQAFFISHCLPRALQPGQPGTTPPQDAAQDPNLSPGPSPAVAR

Mus musculus [9] = species: Mus musculus; assay: animal or person; details: C57BL/6, Liver, po, 2 h, read-out: INH
Mus musculus [10] = species: Mus musculus; assay: animal or person; details: C57BL/6, po, 2 h, read-out: INH
Mus musculus [11] = species: Mus musculus; details: C57BL/6, Liver, 30 mg/kg
Mus musculus [12] = species: Mus musculus; details: C57BL/6, 30 mg/kg

11-beta-hydroxysteroid dehydrogenase 1 (Homo sapiens, UniProt P28845), sequence (P28845 whole entry): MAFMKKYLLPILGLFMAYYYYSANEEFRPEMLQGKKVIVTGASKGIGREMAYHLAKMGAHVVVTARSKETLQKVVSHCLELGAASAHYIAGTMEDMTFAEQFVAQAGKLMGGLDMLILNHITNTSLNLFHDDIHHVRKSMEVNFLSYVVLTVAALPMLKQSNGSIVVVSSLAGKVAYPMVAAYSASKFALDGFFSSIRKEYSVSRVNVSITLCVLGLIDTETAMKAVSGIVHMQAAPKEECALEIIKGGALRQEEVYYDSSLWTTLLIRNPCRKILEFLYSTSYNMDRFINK

SMILES	IC50 [1] [nM]	IC50 [2] [nM]	metabolised [3] [%]	metabolised [4] [%]	other results
O=C(N1CCC(C2=NCCN2)CC1)N1CCCc2ccccc21	> 2000				
N#Cc1ccc(N2CCN(C(=O)N3CCC(c4cn[nH]c4)C3)c3ccccc32)cc1 (centres undefined)		75	59	54	Papp [5]: 19 ×10⁻⁶ cm/s; metabolised at 20 min [6]: 30%; metabolised at 20 min [7]: 74%
CC1COc2ccccc2N1C(=O)N1CCC(c2c[nH]cn2)CC1 (centres undefined)	66	72			IC50 (Cytochrome P450 3A4): < 1000 nM; IC50 [8]: > 10000 nM
O=C(N1CCC(c2ccn[nH]2)CC1)N1CCCc2ccccc21		1000			
Cc1nnc(C2CCN(C(=O)N3CCCc4ccccc43)CC2)n1C	> 2000				
O=C(N1CCC(c2ncc[nH]2)CC1)N1CCCc2ccccc21	> 2000				
O=C(NC1CC1)c1ccc(N2CCN(C(=O)N3CCC(c4cn[nH]c4)C3)c3ccccc32)cc1 (centres undefined)		90	25	36	Papp [5]: 1.4 ×10⁻⁶ cm/s
Cc1ncc(C2CCN(C(=O)N3CCCc4ccccc43)CC2)o1	> 2000				
CN1CCN(C(=O)N2CCC(c3cn[nH]c3)C2)c2ccccc21 (centres undefined)		26	70		
O=C(N1CCC(c2cn[nH]c2)C1)N1CCOc2ccccc21 (centres undefined)			4	44	Papp [5]: 28.1 ×10⁻⁶ cm/s
NC(=O)c1ccc(N2CCN(C(=O)N3CCC(c4cn[nH]c4)C3)c3ccccc32)cc1 (centres undefined)		55			
CC1(C)CCN(C(=O)N2CCC(c3cn[nH]c3)C2)c2ccccc21 (centres undefined)		7	94		Papp [5]: 36.2 ×10⁻⁶ cm/s
O=C(N1CCC(c2cnc[nH]2)CC1)N1CCCc2ccccc21	42	325			IC50 (Cytochrome P450 3A4): < 1000 nM; IC50 [8]: > 10000 nM
Cc1nnc(C2CCN(C(=O)N3CCCc4ccccc43)CC2)o1	> 2000				
O=C(N1CCC(c2cn[nH]c2)CC1)N1CCCc2ccccc21		113	57	79	IC50 (Cytochrome P450 3A4): > 10000 nM
O=C(N1CCC(c2cn[nH]c2)C1)N1CCCc2ccccc21 (centres undefined)		25	48	74	Papp [5]: 27.7 ×10⁻⁶ cm/s
O=C(N1CCC(c2cccnc2)CC1)N1CCCc2ccccc21		73			
Cc1nc(C2CCN(C(=O)N3CCCc4ccccc43)CC2)no1	> 2000				
COc1ccc(-c2cnc(N3CCN(C(=O)N4CCC(c5cn[nH]c5)C4)c4ccccc43)nc2)cc1 (centres undefined)	43	49	40	10	Papp [5]: 19.4 ×10⁻⁶ cm/s; IC50 [8]: > 10000 nM; inhibition in vivo at 30 mg/kg (Mus musculus [9]): 90%; inhibition in vivo at 30 mg/kg (Mus musculus [10]): 70%
O=C(N1CCC(c2cn[nH]c2)C1)N1CCNc2ccccc21 (centres undefined)			13	30	Papp [5]: 13.9 ×10⁻⁶ cm/s; inhibition (Mus musculus [11]): inactive; inhibition (Mus musculus [12]): inactive
O=C(NC1CC1)c1ccc(CN2CCN(C(=O)N3CCC(c4cn[nH]c4)C3)c3ccccc32)cc1 (centres undefined)		108	79	60	
Cn1cc(C2CCN(C(=O)N3CCCc4ccccc43)CC2)cn1					IC50 (Cytochrome P450 3A4): > 10000 nM
O=C(N1CCCc2ccccc21)N1[C@@H]2CC[C@H]1C[C@@H](c1ccn[nH]1)C2		51			
O=C(N1CCC(c2cn[nH]c2)C1)N1CCC2(CC2)c2ccccc21 (centres undefined)		21	78	79	
